Data published in the NIST ThermoML archive (doi:10.1021/acs.jced.8b00554).
Numbers after ± are expanded uncertainties.

Assay: xn = mol fraction of the nth substance listed
Settings: Liquid, Vibrating tube method

CCCCCCCCC [nonane] + CCCO
mass density [kg/m3]
Settings | 353.15 K | 363.15 K
100 kPa, x2 = 0.1231 | – | 655.98 ± 4.2
100 kPa, x2 = 0.2315 | – | 657.04 ± 4.2
100 kPa, x2 = 0.3229 | – | 658.57 ± 4.2
100 kPa, x2 = 0.4272 | – | 662.45 ± 4.2
100 kPa, x2 = 0.7021 | – | 683 ± 4.4
100 kPa, x2 = 0.8941 | – | 710.52 ± 4.5
1000 kPa, x2 = 0.1231 | – | 657.23 ± 4.2
1000 kPa, x2 = 0.8941 | – | 710.94 ± 4.5
1010 kPa, x2 = 0.2315 | – | 659.34 ± 4.2
1010 kPa, x2 = 0.4272 | – | 664.09 ± 4.2
1010 kPa, x2 = 0.7021 | – | 683.53 ± 4.4
1020 kPa, x2 = 0.3229 | – | 660.57 ± 4.2
2010 kPa, x2 = 0.1231 | – | 658.47 ± 4.2
2010 kPa, x2 = 0.2315 | – | 660.57 ± 4.2
2010 kPa, x2 = 0.3229 | – | 661.82 ± 4.2
2010 kPa, x2 = 0.4272 | – | 665.32 ± 4.3
2010 kPa, x2 = 0.7021 | – | 684.79 ± 4.4
2010 kPa, x2 = 0.8941 | – | 712.1 ± 4.6
3010 kPa, x2 = 0.2315 | – | 661.79 ± 4.2
3010 kPa, x2 = 0.3229 | – | 663.05 ± 4.2
3010 kPa, x2 = 0.7021 | – | 686.04 ± 4.4
3010 kPa, x2 = 0.8941 | – | 713.33 ± 4.6
3020 kPa, x2 = 0.1231 | – | 659.67 ± 4.2
3020 kPa, x2 = 0.4272 | – | 666.57 ± 4.3
4010 kPa, x2 = 0.1231 | – | 660.89 ± 4.2
4010 kPa, x2 = 0.3229 | – | 664.28 ± 4.3
4010 kPa, x2 = 0.4272 | – | 667.83 ± 4.3
4010 kPa, x2 = 0.7021 | – | 687.34 ± 4.4
4010 kPa, x2 = 0.8941 | – | 714.55 ± 4.6
4020 kPa, x2 = 0.2315 | – | 663.04 ± 4.2
5000 kPa, x2 = 0.4272 | – | 669.09 ± 4.3
5000 kPa, x2 = 0.7021 | – | 688.61 ± 4.4
5010 kPa, x2 = 0.1231 | – | 662.09 ± 4.2
5010 kPa, x2 = 0.2315 | – | 664.23 ± 4.3
5010 kPa, x2 = 0.3229 | – | 665.52 ± 4.3
5010 kPa, x2 = 0.8941 | – | 715.78 ± 4.6
6000 kPa, x2 = 0.7021 | – | 689.86 ± 4.4
6010 kPa, x2 = 0.2315 | – | 665.41 ± 4.3
6010 kPa, x2 = 0.4272 | – | 670.36 ± 4.3
6010 kPa, x2 = 0.8941 | – | 717.03 ± 4.6
6020 kPa, x2 = 0.1231 | – | 663.3 ± 4.2
6020 kPa, x2 = 0.3229 | – | 666.76 ± 4.3
7000 kPa, x2 = 0.3229 | – | 667.99 ± 4.3
7000 kPa, x2 = 0.7021 | – | 691.15 ± 4.4
7010 kPa, x2 = 0.1231 | – | 664.48 ± 4.3
7010 kPa, x2 = 0.2315 | – | 666.62 ± 4.3
7020 kPa, x2 = 0.4272 | – | 671.62 ± 4.3
7020 kPa, x2 = 0.8941 | – | 718.27 ± 4.6
8000 kPa, x2 = 0.3229 | – | 669.23 ± 4.3
8000 kPa, x2 = 0.7021 | – | 692.44 ± 4.4
8010 kPa, x2 = 0.8941 | – | 719.48 ± 4.6
8020 kPa, x2 = 0.1231 | – | 665.72 ± 4.3
8020 kPa, x2 = 0.2315 | – | 667.87 ± 4.3
8020 kPa, x2 = 0.4272 | – | 672.88 ± 4.3
9000 kPa, x2 = 0.2315 | – | 669.09 ± 4.3
9000 kPa, x2 = 0.3229 | – | 670.48 ± 4.3
9010 kPa, x2 = 0.7021 | – | 693.71 ± 4.5
9010 kPa, x2 = 0.8941 | – | 720.71 ± 4.6
9020 kPa, x2 = 0.1231 | – | 666.89 ± 4.3
9020 kPa, x2 = 0.4272 | – | 674.14 ± 4.3
10010 kPa, x2 = 0.1231 | – | 668.07 ± 4.3
10010 kPa, x2 = 0.2315 | – | 670.27 ± 4.3
10010 kPa, x2 = 0.3229 | – | 671.75 ± 4.3
10010 kPa, x2 = 0.4272 | – | 675.41 ± 4.3
10010 kPa, x2 = 0.7021 | – | 694.96 ± 4.5
10010 kPa, x2 = 0.8941 | – | 721.93 ± 4.6
11000 kPa, x2 = 0.1231 | 679.16 ± 4.4 | –
11000 kPa, x2 = 0.4272 | 688.79 ± 4.4 | –
11010 kPa, x2 = 0.1231 | – | 669.29 ± 4.3
11010 kPa, x2 = 0.2315 | 682.07 ± 4.4 | 671.48 ± 4.3
11010 kPa, x2 = 0.3229 | – | 672.98 ± 4.3
11010 kPa, x2 = 0.4272 | – | 676.62 ± 4.3
11010 kPa, x2 = 0.7021 | 709.06 ± 4.5 | –
11010 kPa, x2 = 0.8941 | 735.52 ± 4.7 | 723.15 ± 4.6
11020 kPa, x2 = 0.3229 | 684.47 ± 4.4 | –
11020 kPa, x2 = 0.7021 | – | 696.2 ± 4.5
12000 kPa, x2 = 0.3229 | 685.59 ± 4.4 | 674.18 ± 4.3
12000 kPa, x2 = 0.7021 | 710.18 ± 4.5 | 697.42 ± 4.5
12010 kPa, x2 = 0.1231 | 680.24 ± 4.4 | 670.44 ± 4.3
12010 kPa, x2 = 0.2315 | 683.2 ± 4.4 | 672.7 ± 4.3
12010 kPa, x2 = 0.4272 | 689.92 ± 4.4 | 677.87 ± 4.3
12010 kPa, x2 = 0.8941 | 736.6 ± 4.7 | 724.32 ± 4.6
13000 kPa, x2 = 0.4272 | – | 679.08 ± 4.4
13000 kPa, x2 = 0.8941 | – | 725.44 ± 4.7
13010 kPa, x2 = 0.1231 | 681.32 ± 4.4 | 671.61 ± 4.3
13010 kPa, x2 = 0.3229 | – | 675.41 ± 4.3
13010 kPa, x2 = 0.4272 | 691.03 ± 4.4 | –
13010 kPa, x2 = 0.7021 | 711.31 ± 4.6 | 698.65 ± 4.5
13010 kPa, x2 = 0.8941 | 737.63 ± 4.7 | –
13020 kPa, x2 = 0.2315 | 684.28 ± 4.4 | 673.89 ± 4.3
13020 kPa, x2 = 0.3229 | 686.69 ± 4.4 | –
14000 kPa, x2 = 0.3229 | 687.76 ± 4.4 | 676.57 ± 4.3
14000 kPa, x2 = 0.4272 | 692.13 ± 4.4 | –
14000 kPa, x2 = 0.8941 | 738.72 ± 4.7 | –
14010 kPa, x2 = 0.1231 | 682.37 ± 4.4 | –
14010 kPa, x2 = 0.2315 | 685.35 ± 4.4 | –
14010 kPa, x2 = 0.4272 | – | 680.27 ± 4.4
14010 kPa, x2 = 0.7021 | – | 699.83 ± 4.5
14010 kPa, x2 = 0.8941 | – | 726.63 ± 4.7
14020 kPa, x2 = 0.1231 | – | 672.74 ± 4.3
14020 kPa, x2 = 0.2315 | – | 675.04 ± 4.3
14020 kPa, x2 = 0.7021 | 712.38 ± 4.6 | –
15000 kPa, x2 = 0.2315 | – | 676.17 ± 4.3
15000 kPa, x2 = 0.4272 | 693.19 ± 4.5 | –
15010 kPa, x2 = 0.1231 | 683.4 ± 4.4 | 673.85 ± 4.3
15010 kPa, x2 = 0.3229 | 688.83 ± 4.4 | 677.73 ± 4.3
15010 kPa, x2 = 0.4272 | – | 681.42 ± 4.4
15010 kPa, x2 = 0.7021 | 713.45 ± 4.6 | –
15010 kPa, x2 = 0.8941 | – | 727.76 ± 4.7
15020 kPa, x2 = 0.2315 | 686.39 ± 4.4 | –
15020 kPa, x2 = 0.7021 | – | 700.99 ± 4.5
15020 kPa, x2 = 0.8941 | 739.75 ± 4.7 | –
16000 kPa, x2 = 0.2315 | 687.43 ± 4.4 | 677.27 ± 4.3
16000 kPa, x2 = 0.8941 | 740.76 ± 4.8 | –
16010 kPa, x2 = 0.1231 | 684.41 ± 4.4 | 674.91 ± 4.3
16010 kPa, x2 = 0.3229 | – | 678.86 ± 4.4
16010 kPa, x2 = 0.4272 | 694.24 ± 4.5 | 682.56 ± 4.4
16010 kPa, x2 = 0.7021 | 714.52 ± 4.6 | –
16020 kPa, x2 = 0.3229 | 689.88 ± 4.4 | –
16020 kPa, x2 = 0.7021 | – | 702.15 ± 4.5
16020 kPa, x2 = 0.8941 | – | 728.86 ± 4.7
17000 kPa, x2 = 0.1231 | – | 676 ± 4.3
17000 kPa, x2 = 0.8941 | 741.78 ± 4.8 | 729.95 ± 4.7
17010 kPa, x2 = 0.1231 | 685.42 ± 4.4 | –
17010 kPa, x2 = 0.2315 | – | 678.41 ± 4.4
17010 kPa, x2 = 0.3229 | 690.92 ± 4.4 | –
17010 kPa, x2 = 0.4272 | 695.25 ± 4.5 | 683.64 ± 4.4
17010 kPa, x2 = 0.7021 | 715.56 ± 4.6 | –
17020 kPa, x2 = 0.2315 | 688.48 ± 4.4 | –
17020 kPa, x2 = 0.3229 | – | 679.98 ± 4.4
17020 kPa, x2 = 0.7021 | – | 703.28 ± 4.5
18000 kPa, x2 = 0.3229 | 691.91 ± 4.4 | –
18000 kPa, x2 = 0.7021 | 716.55 ± 4.6 | –
18010 kPa, x2 = 0.1231 | 686.41 ± 4.4 | 677.05 ± 4.3
18010 kPa, x2 = 0.2315 | 689.45 ± 4.4 | 679.45 ± 4.4
18010 kPa, x2 = 0.4272 | – | 684.75 ± 4.4
18010 kPa, x2 = 0.7021 | – | 704.37 ± 4.5
18010 kPa, x2 = 0.8941 | 742.76 ± 4.8 | –
18020 kPa, x2 = 0.3229 | – | 681.03 ± 4.4
18020 kPa, x2 = 0.4272 | 696.27 ± 4.5 | –
18020 kPa, x2 = 0.8941 | – | 731.02 ± 4.7
19000 kPa, x2 = 0.2315 | – | 680.43 ± 4.4
19000 kPa, x2 = 0.3229 | 692.9 ± 4.5 | –
19000 kPa, x2 = 0.4272 | 697.25 ± 4.5 | –
19000 kPa, x2 = 0.7021 | – | 705.41 ± 4.5
19010 kPa, x2 = 0.1231 | 687.34 ± 4.4 | 678.04 ± 4.3
19010 kPa, x2 = 0.2315 | 690.38 ± 4.4 | –
19010 kPa, x2 = 0.3229 | – | 682.1 ± 4.4
19010 kPa, x2 = 0.4272 | – | 685.8 ± 4.4
19010 kPa, x2 = 0.8941 | 743.72 ± 4.8 | 732.06 ± 4.7
19020 kPa, x2 = 0.7021 | 717.54 ± 4.6 | –
20000 kPa, x2 = 0.1231 | 688.24 ± 4.4 | –
20000 kPa, x2 = 0.2315 | 691.33 ± 4.4 | –
20000 kPa, x2 = 0.3229 | 693.81 ± 4.5 | –
20010 kPa, x2 = 0.1231 | – | 679 ± 4.4
20010 kPa, x2 = 0.2315 | – | 681.42 ± 4.4
20010 kPa, x2 = 0.3229 | – | 683.05 ± 4.4
20010 kPa, x2 = 0.4272 | 698.23 ± 4.5 | 686.85 ± 4.4
20010 kPa, x2 = 0.7021 | 718.51 ± 4.6 | –
20020 kPa, x2 = 0.7021 | – | 706.48 ± 4.5
20020 kPa, x2 = 0.8941 | 744.66 ± 4.8 | 733.04 ± 4.7
